Measurements reported in patent publication US20170224662A1 (priority 2016, published 2017).
Values after ≈ are worked out from the molar mass of the structure shown. Read-outs that look alike come from different tables or passages of the source.

Tests used:
Type in all cases: physicochemical
physchem [1] = details: aqueous buffer, thermodynamic from solid, read-out: Actual [CPMM] Concentration (maximum solubility)
Method: CPMM was evaluated for maximum solubility in aqueous pH 1-9 buffer solutions. CPMM was weighted into 1.0 mL of each solution, vortex mixed to solubilize, and placed on a shaker table until saturated. Additional CPMM was added and replaced on the shaker table until a saturated solution was obtained. The one exception was the pH 1 sample solution, which never reached saturation level due to the CPMM's high solubility at that pH range. Saturated solutions were centrifuged and the supernatants were analyzed by HPLC.

physchem [2] = details: imidazole nitrogen in position 3; solubility analysis (log solubility curve) and titration
From the text: The solubility of compounds as disclosed herein is pH-dependent. The imidazole nitrogen in position 3 of CPMM has a pKa of approximately 2.5, as determined by solubility analysis and titration. For example, CPMM is very water soluble at low pH, but solubility decreases with increasing pH, such that it is lower at pH 3-8.

physchem [3] = details: for HPLC [CPMM] Concentration: diluted sample; for Actual [CPMM] Concentration: never saturated, stopped after 100 mg added
Method: CPMM solubility was also evaluated in common solvents: water, methanol, ethanol, acetonitrile, and isopropanol. CPMM was weighed into 1.0 mL of each solvent and vortex-mixed. Only the water sample was saturated with CPMM; the other solvents never achieved saturation due to their high CPMM solubility. The screening was stopped after 100 mg of bulk CPMM had been added. Table 2 lists the ABP-700 solubility results in common solvents.

[4] = Binary excipient screening: stability of CPMM 1 mg/mL in IV-compatible excipient solutions in 10 mM pH 3 phosphate buffer; details: for CPMM % Purity: t = 0
Method: CPMM was evaluated for compatibility with excipients that are suitable for IV administration. A buffer solution (phosphate at pH 3) was selected as the diluent for excipient screening studies. […] CPMM was solubilized in each excipient solution at 1 mg/mL.
While CPMM completely dissolved in the control sample within several minutes, many of the excipient solutions required overnight storage at 5° C. to solubilize the drug.
Each excipient sample solution was placed on a two-week stability study at 25° C./60% relative humidity and 40° C./75% relative humidity, and analyzed for CPMM purity at t=0, 1, and 2 weeks by comparing individual samples to their respective excipient blank solution.

## COC(=O)C1(OC(=O)c2cncn2[C@H](C)c2ccccc2)CC1 [CPMM, 1-(methoxycarbonyl)cyclopropyl-1-[(1R)-1-phenylethyl]-1H-imidazole-5-carboxylate]
Physchem [1]; 50 mM buffer pH 1 (phosphoric acid), actual pH 0.63, never saturated, not a true maximum solubility
  solubility: 404000 µg/mL (≈ 1280 mM)
Physchem [1]; 50 mM buffer pH 2 (phosphoric acid), actual pH 1.43
  solubility: 49400 µg/mL (≈ 157 mM)
Physchem [1]; 50 mM buffer pH 3 (phosphoric acid), actual pH 2.62
  solubility: 3150 µg/mL (≈ 10 mM)
Physchem [1]; 50 mM buffer pH 4 (citric acid), actual pH 3.5
  solubility: 677 µg/mL (≈ 2.15 mM)
Physchem [1]; 50 mM buffer pH 5 (citric acid), actual pH 4.57
  solubility: 325 µg/mL (≈ 1.03 mM)
Physchem [1]; 50 mM buffer pH 6 (citric acid), actual pH 5.55
  solubility: 284 µg/mL (≈ 0.903 mM)
Physchem [1]; 50 mM buffer pH 7 (phosphoric acid), actual pH 6.68
  solubility: 268 µg/mL (≈ 0.853 mM)
Physchem [1]; 50 mM buffer pH 8 (phosphoric acid), actual pH 7.48
  solubility: 260 µg/mL (≈ 0.827 mM)
Physchem [1]; 50 mM buffer pH 9 (phosphoric acid), actual pH 8.81
  solubility: 279 µg/mL (≈ 0.888 mM)
Physchem [2]
  pKa: ~2.5
Physchem [3]; Acetonitrile, dilution factor 166.67
  HPLC [CPMM] Concentration: 474.2 µg/mL
Physchem [3]; Acetonitrile
  Actual [CPMM] Concentration: 79034.9 µg/mL
Physchem [3]; Ethanol, dilution factor 166.67
  HPLC [CPMM] Concentration: 534.3 µg/mL
Physchem [3]; Ethanol
  Actual [CPMM] Concentration: 89051.8 µg/mL
Physchem [3]; Isopropanol, dilution factor 166.67
  HPLC [CPMM] Concentration: 514.5 µg/mL
Physchem [3]; Isopropanol
  Actual [CPMM] Concentration: 85751.7 µg/mL
Physchem [3]; Methanol, dilution factor 166.67
  HPLC [CPMM] Concentration: 503.2 µg/mL
Physchem [3]; Methanol
  Actual [CPMM] Concentration: 83868.3 µg/mL
Physchem [3]; Water, dilution factor 6.67
  HPLC [CPMM] Concentration: 449.2 µg/mL
Physchem [3]; thermodynamic from solid, Water, saturated, read-out: Actual [CPMM] Concentration
  solubility thermodynamic: 3000 µg/mL (≈ 9.53 mM)
[4]; Ascorbic Acid 0.5% in pH 3 buffer, 1 week 25° C./60% RH
  Change in CPMM % Purity: −14.4%
[4]; Ascorbic Acid 0.5% in pH 3 buffer, 1 week 40° C./75% RH
  Change in CPMM % Purity: −31.6%
[4]; Ascorbic Acid 0.5% in pH 3 buffer, 2 weeks 25° C./60% RH
  Change in CPMM % Purity: −26.4%
[4]; Ascorbic Acid 0.5% in pH 3 buffer, 2 weeks 40° C./75% RH
  Change in CPMM % Purity: −49.8%
[4]; Ascorbic Acid 0.5% in pH 3 buffer
  CPMM % Purity: 97.6%
[4]; Ascorbic Acid/Edetate Disodium Dihydrate 0.5%/0.05% in pH 3 buffer, 1 week 25° C./60% RH
  Change in CPMM % Purity: −2.2%
[4]; Ascorbic Acid/Edetate Disodium Dihydrate 0.5%/0.05% in pH 3 buffer, 1 week 40° C./75% RH
  Change in CPMM % Purity: −9.8%
[4]; Ascorbic Acid/Edetate Disodium Dihydrate 0.5%/0.05% in pH 3 buffer, 2 weeks 25° C./60% RH
  Change in CPMM % Purity: −4.2%
[4]; Ascorbic Acid/Edetate Disodium Dihydrate 0.5%/0.05% in pH 3 buffer, 2 weeks 40° C./75% RH
  Change in CPMM % Purity: −17.8%
[4]; Ascorbic Acid/Edetate Disodium Dihydrate 0.5%/0.05% in pH 3 buffer
  CPMM % Purity: 99.4%
[4]; Control: Water, 1 week 25° C./60% RH
  Change in CPMM % Purity: −0.9%
[4]; Control: Water, 1 week 40° C./75% RH
  Change in CPMM % Purity: −3.4%
[4]; Control: Water
  CPMM % Purity: 99.4%
[4]; Control: pH 3 Buffer, 1 week 25° C./60% RH
  Change in CPMM % Purity: −1.6%
[4]; Control: pH 3 Buffer, 1 week 40° C./75% RH
  Change in CPMM % Purity: −5.3%
[4]; Control: pH 3 Buffer, 2 weeks 25° C./60% RH
  Change in CPMM % Purity: −2.6%
[4]; Control: pH 3 Buffer, 2 weeks 40° C./75% RH
  Change in CPMM % Purity: −9.2%
[4]; Control: pH 3 Buffer
  CPMM % Purity: 99.5%
[4]; Dextrose 5% in pH 3 buffer, 1 week 25° C./60% RH
  Change in CPMM % Purity: −1.5%
[4]; Dextrose 5% in pH 3 buffer, 1 week 40° C./75% RH
  Change in CPMM % Purity: −5.2%
[4]; Dextrose 5% in pH 3 buffer, 2 weeks 25° C./60% RH
  Change in CPMM % Purity: −2.5%
[4]; Dextrose 5% in pH 3 buffer, 2 weeks 40° C./75% RH
  Change in CPMM % Purity: −9.0%
[4]; Dextrose 5% in pH 3 buffer
  CPMM % Purity: 99.4%
[4]; Ethanol 10% in pH 3 buffer, 1 week 25° C./60% RH
  Change in CPMM % Purity: −1.1%
[4]; Ethanol 10% in pH 3 buffer, 1 week 40° C./75% RH
  Change in CPMM % Purity: −3.2%
[4]; Ethanol 10% in pH 3 buffer, 2 weeks 25° C./60% RH
  Change in CPMM % Purity: −3.1%
[4]; Ethanol 10% in pH 3 buffer, 2 weeks 40° C./75% RH
  Change in CPMM % Purity: −7.0%
[4]; Ethanol 10% in pH 3 buffer
  CPMM % Purity: 99.5%
[4]; Glycerol 10% in pH 3 buffer, 1 week 25° C./60% RH
  Change in CPMM % Purity: −1.3%
[4]; Glycerol 10% in pH 3 buffer, 1 week 40° C./75% RH
  Change in CPMM % Purity: −4.7%
[4]; Glycerol 10% in pH 3 buffer, 2 weeks 25° C./60% RH
  Change in CPMM % Purity: −3.6%
[4]; Glycerol 10% in pH 3 buffer, 2 weeks 40° C./75% RH
  Change in CPMM % Purity: −9.8%
[4]; Glycerol 10% in pH 3 buffer
  CPMM % Purity: 99.4%
[4]; HPβCD 10% in pH 3 buffer, 1 week 25° C./60% RH
  Change in CPMM % Purity: −0.4%
[4]; HPβCD 10% in pH 3 buffer, 1 week 40° C./75% RH
  Change in CPMM % Purity: −1.6%
[4]; HPβCD 10% in pH 3 buffer, 2 weeks 25° C./60% RH
  Change in CPMM % Purity: −0.6%
[4]; HPβCD 10% in pH 3 buffer, 2 weeks 40° C./75% RH
  Change in CPMM % Purity: −2.5%
[4]; HPβCD 10% in pH 3 buffer
  CPMM % Purity: 99.4%
[4]; KCl 5% in pH 3 buffer, 1 week 25° C./60% RH
  Change in CPMM % Purity: −1.3%
[4]; KCl 5% in pH 3 buffer, 1 week 40° C./75% RH
  Change in CPMM % Purity: −4.8%
[4]; KCl 5% in pH 3 buffer, 2 weeks 25° C./60% RH
  Change in CPMM % Purity: −2.2%
[4]; KCl 5% in pH 3 buffer, 2 weeks 40° C./75% RH
  Change in CPMM % Purity: −8.2%
[4]; KCl 5% in pH 3 buffer
  CPMM % Purity: 99.4%
[4]; Lutrol F68 1% in pH 3 buffer, 1 week 25° C./60% RH
  Change in CPMM % Purity: −1.6%
